Measured values from article PMC11201828, “A Novel Dimeric Short Peptide Derived from α-Defensin-Related Rattusin with Improved Antimicrobial and DNA-Binding Activities” (Biomolecules, 2024).
≈ marks a conversion by molar mass, not a printed value. Positions of bridges follow the written chain, without caps; N, C: chain ends. Residues, ends and D or L forms follow the SMILES beside them. Chains are numbered I, II in the order given.

What was measured:
[1] = tested on: E. coli ML-35; test: ONPG hydrolysis assay (inner membrane permeability); type: cell-based, Escherichia coli; settings: 32 µM F2, 4 µM melittin, 16 µM buforin-2, Figure 4
Procedure: The internal membrane permeability was assessed using the ONPG hydrolysis assay, as described previously. E. coli ML-35p, which constitutively expresses cytoplasmic β-galactosidase and periplasmic β-lactamase, is resistant to ampicillin and deficient in lactose permease. E. coli ML-35 was incubated in LB broth containing ampicillin at 37 °C until the optical density (O.D.) at 600 nm reached 1.0. The cells were then washed with a buffer consisting of 97% 1× PBS and 3% LB and diluted to an O.D. 600 of 0.4 in the same buffer. A mixture of 50 μL of serially diluted peptide and 20 μL of dye (ONPG, final concentration 3 mM) was added to 100 μL of the bacterial suspension in a sterilized 96-well plate. Melittin served as a positive control, while buforin-2 was used as a negative control. The hydrolysis of ONPG was measured using a PHOMO Elisa reader (Autobio, Zhengzhou, China) at 405 nm for each time period.

[2] = tested on: bacterial strains; type: cell-based; settings: strain not given; see Tables 1 and 2
Procedure: (§1) The minimal inhibitory concentrations (MICs) of the peptides were determined following the broth microdilution method recommended by the Clinical and Laboratory Standards Institute (CLSI). Briefly, bacteria in their mid-logarithmic growth phase were diluted in Mueller–Hinton broth (MHB) (Difco, Franklin Lakes, NJ, USA) and aliquoted into a 96-well microtiter plate at a density of 4 × 10^6 CFU/well. The assay included both Gram-negative bacteria (Escherichia coli, Salmonella typhimurium, and Pseudomonas aeruginosa) and Gram-positive bacteria (Bacillus subtilis, Staphylococcus aureus, and Staphylococcus epidermidis), as well as methicillin-resistant Staphylococcus aureus strains (MRSA: CCARM 3089, CCARM 3090, CCARM 3095). The samples were subjected to a two-fold serial dilution before being added to the wells, and the plate was incubated at 37 °C for 24 h. The MIC was defined as the lowest peptide concentration that prevented visible bacterial growth. All experiments were conducted in triplicate and included appropriate growth and sterility controls.

[3] = tested on: Pseudomonas aeruginosa; type: cell-based; settings: 24 h
Procedure: as §1

[4] = tested on: Staphylococcus epidermidis; type: cell-based; settings: 24 h
Procedure: as §1

[5] = tested on: Escherichia coli; type: cell-based; settings: 24 h
Procedure: as §1

[6] = tested on: Staphylococcus aureus; type: cell-based; settings: 24 h
Procedure: as §1

[7] = tested on: Bacillus subtilis; type: cell-based; settings: 24 h
Procedure: as §1

[8] = tested on: Salmonella typhimurium; type: cell-based; settings: murium, 24 h
Procedure: as §1

[9] = tested on: MRSA CCARM 3090; type: cell-based, methicillin-resistant Staphylococcus aureus; settings: CCARM 3090, 24 h
Procedure: as §1

[10] = tested on: MRSA CCARM 3089; type: cell-based, methicillin-resistant Staphylococcus aureus; settings: CCARM 3089, 24 h
Procedure: as §1

[11] = tested on: MRSA CCARM 3095; type: cell-based, methicillin-resistant Staphylococcus aureus; settings: CCARM 3095, 24 h
Procedure: as §1

[12] = tested on: S. aureus cytoplasmic membrane; test: Membrane depolarization assay, DiSC3-(5) dye; type: cell-based, Staphylococcus aureus; settings: intact S. aureus; 32 µM F2, 4 µM melittin, 16 µM buforin-2; peptide added after 300 s; Figure 2
Procedure: The cytoplasmic membrane depolarization activity of the peptides was assessed using the membrane-potential-sensitive dye DiSC3-(5), following methodologies previously described in the literature. Staphylococcus aureus was cultured in Luria–Bertani (LB) broth at 37 °C until reaching an optical density (O.D.) at 600 nm of 0.3–0.4, indicative of mid-logarithmic phase growth. The cells were then washed with a buffer containing 20 mM glucose and 5 mM HEPES, and the cell suspension was diluted to an O.D. 600 of 0.05 in the same buffer. Potassium chloride (KCl) was added to achieve a final concentration of 100 mM to equilibrate potassium ion levels. The concentrations used for each peptide in our membrane depolarization assays were based on their respective MICs: 32 µM for F2, 4 µM for Melittin, and 16 µM for Buferin-2.
Fluorescence was monitored using an F-4500 FL fluorescence spectrophotometer (Shimadzu, Kyoto, Japan) with excitation and emission wavelengths set at 622 nm and 670 nm, respectively. Melittin, known for its membrane-disrupting properties, served as a positive control, while buforin-2, which translocates across membranes without causing depolarization, acted as a negative control. Both melittin and buforin-2 were tested at concentrations twice their minimal inhibitory concentration (MIC) levels.

[13] = tested on: S. aureus cell membranes; test: SYTOX Green uptake assay; type: cell-based, Staphylococcus aureus; settings: 32 µM F2, 4 µM melittin, 16 µM buforin-2, Figure 3
Procedure: The membrane permeabilization activity of the peptides was determined using the SYTOX Green uptake assay, as described previously. S. aureus was cultured in LB broth at 37 °C until it reached an optical density (O.D.) at 600 nm of 0.4, indicative of the mid-logarithmic phase. The cells were then washed and diluted to an O.D. 600 of 0.05 using 1× PBS buffer. The dye (SYTOX Green nucleic acid stain) was added to the bacterial suspension at a concentration of […], and the mixture was incubated at 4 °C for 18 h with agitation in the dark. The SYTOX Green-treated bacteria were placed in a quartz cell, where they were simultaneously exposed to the positive control melittin (2× MIC), the negative control buforin-2 (2× MIC), and the F2 dimer (2× MIC). An F-4500 FL fluorescence spectrophotometer (Shimadzu, Kyoto, Japan) was used to monitor fluorescence (excitation 485 nm, emission 520 nm).

[14] = tested on: plasmid DNA (pHIS2); test: DNA-binding gel retardation assay; settings: plasmid pHIS2 145 μg/mL, 37 °C, 1 h, 1% agarose gel; Figure 5
Procedure: We evaluated the DNA-binding ability of F2 and F2 (C4S) monomeric peptides using gel retardation experiments. The concentration of plasmid DNA (pHIS2) was fixed at 145 μg/mL. The peptide was serially diluted in a binding buffer consisting of 10 mM Tris-HCl (pH 8.0), 5% glucose, 50 μg/mL BSA, 1 mM EDTA, and 20 mM KCl. This solution was then mixed with the DNA and incubated at 37 °C for 1 h. After incubation, the DNA–peptide mixture was stained with DNA gel loading dye. The samples were analyzed using 1% agarose gel electrophoresis in 0.5× TAE buffer. Plasmid bands were detected with a UV illuminator (Bio-Rad, Hercules, CA, USA).

[15] = molecular target: F2 (rattusin fragment, residues 12-18, dimeric hairpin loop region) (rat); test: RP-HPLC; monomeric F2 (before disulfide bonding) incubated in MIC buffer; formation of the disulfide-bonded dimer monitored by RP-HPLC

## CC(C)[C@H](NC(=O)[C@H](CCCNC(=N)N)NC(=O)[C@@H](N)CCCNC(=N)N)C(=O)N[C@@H](CSSC[C@H](NC(=O)[C@@H](NC(=O)[C@H](CCCNC(=N)N)NC(=O)[C@@H](N)CCCNC(=N)N)C(C)C)C(=O)N[C@@H](CCCNC(=N)N)C(=O)N[C@@H](CC(N)=O)C(=O)N[C@H](C(N)=O)[C@@H](C)O)C(=O)N[C@@H](CCCNC(=N)N)C(=O)N[C@@H](CC(N)=O)C(=O)N[C@H](C(N)=O)[C@@H](C)O [F2] (I: H-RRVCRNT-NH2 / II: H-RRVCRNT-NH2; disulfide I:4-II:4; N-terminus assumed)
[1]
  ONPG hydrolysis (absorbance at 405 nm): did not alter the absorbance
[2]
  MIC: 15 µg/mL (≈ 8.31 µM)
[3]
  MIC: 15 µg/mL (≈ 8.31 µM)
[4]
  MIC: 15 µg/mL (≈ 8.31 µM)
[5]
  MIC: 15 µg/mL (≈ 8.31 µM)
[6]
  MIC: 58 µg/mL (≈ 32.1 µM)
[7]
  MIC: 29 µg/mL (≈ 16.1 µM)
[8]
  MIC: 15 µg/mL (≈ 8.31 µM)
[9]
  MIC: 116 µg/mL (≈ 64.3 µM)
[10]
  MIC: 58 µg/mL (≈ 32.1 µM)
[11]
  MIC: 58 µg/mL (≈ 32.1 µM)
[12]
  cytoplasmic membrane depolarization (DiSC3-(5) fluorescence): did not cause any membrane depolarization
[13]
  SYTOX Green uptake (fluorescence intensity): did not show a similar increase in fluorescence intensity
[14]
  peptide concentration giving DNA band retardation: 4 µM

## F2 (rattusin fragment, residues 12-18, dimeric hairpin loop region) (peptide)
[15]
  stoichiometry N: 2
